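Tested at 5 concentrations; 48 h exposure; 96-well plates; endpoints linearly interpolated, else capped at highest concentration. Definition used: TGI = concentration required for complete inhibition of growth.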
How the values were obtained:
Assay in all cases: DTP human tumour cell line panel, 48 h
COLO 205 colon = system: COLO 205 colon
A498 renal = system: A498 renal
DMS 114 small cell lung = system: DMS 114 small cell lung
SF-295 CNS = system: SF-295 CNS
NCI-H522 lung = system: NCI-H522 lung
RPMI-8226 leukemia = system: RPMI-8226 leukemia
EKVX NSCLC = system: EKVX NSCLC
DMS 273 small cell lung = system: DMS 273 small cell lung
TK-10 renal = system: TK-10 renal
NCI-H460 lung = system: NCI-H460 lung
HCT-15 colon = system: HCT-15 colon
M14 melanoma = system: M14 melanoma
K-562 leukemia = system: K-562 leukemia
SF-268 CNS = system: SF-268 CNS
HOP-62 NSCLC = system: HOP-62 NSCLC
SNB-19 CNS = system: SNB-19 CNS
SNB-75 CNS = system: SNB-75 CNS
NCI-H226 lung = system: NCI-H226 lung
OVCAR-4 ovarian = system: OVCAR-4 ovarian
SF-539 CNS = system: SF-539 CNS
KM12 colon = system: KM12 colon
HT29 colon = system: HT29 colon
SN12C renal = system: SN12C renal
RXF 393 renal = system: RXF 393 renal
UACC-62 melanoma = system: UACC-62 melanoma
OVCAR-5 ovarian = system: OVCAR-5 ovarian
SK-MEL-5 melanoma = system: SK-MEL-5 melanoma
KM20L2 colon = system: KM20L2 colon
HL-60(TB) leukemia = system: HL-60(TB) leukemia
MALME-3M melanoma = system: MALME-3M melanoma
MOLT-4 leukemia = system: MOLT-4 leukemia
A549 NSCLC = system: A549 NSCLC
HOP-18 NSCLC = system: HOP-18 NSCLC
UO-31 renal = system: UO-31 renal
CAKI-1 renal = system: CAKI-1 renal
SW-620 colon = system: SW-620 colon
M19-MEL melanoma = system: M19-MEL melanoma
IGROV1 ovarian = system: IGROV1 ovarian
SNB-78 CNS = system: SNB-78 CNS
SK-MEL-2 melanoma = system: SK-MEL-2 melanoma
UACC-257 melanoma = system: UACC-257 melanoma
DLD-1 colon = system: DLD-1 colon
XF 498 CNS = system: XF 498 CNS
OVCAR-8 ovarian = system: OVCAR-8 ovarian
SK-OV-3 ovarian = system: SK-OV-3 ovarian
786-0 renal = system: 786-0 renal
LXFL 529 NSCLC = system: LXFL 529 NSCLC
U251 CNS = system: U251 CNS
OVCAR-3 ovarian = system: OVCAR-3 ovarian
CCRF-CEM leukemia = system: CCRF-CEM leukemia
NCI-H23 lung = system: NCI-H23 lung
LOX IMVI melanoma = system: LOX IMVI melanoma
HCT-116 colon = system: HCT-116 colon
HOP-92 NSCLC = system: HOP-92 NSCLC
SK-MEL-28 melanoma = system: SK-MEL-28 melanoma
ACHN renal = system: ACHN renal
HCC-2998 colon = system: HCC-2998 colon

Compound: N#Cc1cccc(N2C(=O)c3ccc(C(=O)c4ccc5c(c4)C(=O)N(c4cccc(C#N)c4)C5=O)cc3C2=O)c1
- TGI (COLO 205 colon): > 100 µM
- TGI (A498 renal): > 100 µM
- TGI (DMS 114 small cell lung): > 100 µM
- TGI (SF-295 CNS): > 100 µM
- TGI (NCI-H522 lung): > 100 µM
- TGI (RPMI-8226 leukemia): > 100 µM
- TGI (EKVX NSCLC): > 100 µM
- TGI (DMS 273 small cell lung): > 100 µM
- TGI (TK-10 renal): > 100 µM
- TGI (NCI-H460 lung): > 100 µM
- TGI (HCT-15 colon): > 100 µM
- TGI (M14 melanoma): > 100 µM
- TGI (K-562 leukemia): > 100 µM
- TGI (SF-268 CNS): > 100 µM
- TGI (HOP-62 NSCLC): > 100 µM
- TGI (SNB-19 CNS): > 100 µM
- TGI (SNB-75 CNS): > 100 µM
- TGI (NCI-H226 lung): > 100 µM
- TGI (OVCAR-4 ovarian): > 100 µM
- TGI (SF-539 CNS): > 100 µM
- TGI (KM12 colon): > 100 µM
- TGI (HT29 colon): > 100 µM
- TGI (SN12C renal): > 100 µM
- TGI (RXF 393 renal): > 100 µM
- TGI (UACC-62 melanoma): > 100 µM
- TGI (OVCAR-5 ovarian): > 100 µM
- TGI (SK-MEL-5 melanoma): > 100 µM
- TGI (KM20L2 colon): > 100 µM
- TGI (HL-60(TB) leukemia): > 100 µM
- TGI (MALME-3M melanoma): > 100 µM
- TGI (MOLT-4 leukemia): > 100 µM
- TGI (A549 NSCLC): > 100 µM
- TGI (HOP-18 NSCLC): > 100 µM
- TGI (UO-31 renal): > 100 µM
- TGI (CAKI-1 renal): > 100 µM
- TGI (SW-620 colon): > 100 µM
- TGI (M19-MEL melanoma): > 100 µM
- TGI (IGROV1 ovarian): > 100 µM
- TGI (SNB-78 CNS): > 100 µM
- TGI (SK-MEL-2 melanoma): > 100 µM
- TGI (UACC-257 melanoma): > 100 µM
- TGI (DLD-1 colon): > 100 µM
- TGI (XF 498 CNS): > 100 µM
- TGI (OVCAR-8 ovarian): > 100 µM
- TGI (SK-OV-3 ovarian): > 100 µM
- TGI (786-0 renal): > 100 µM
- TGI (LXFL 529 NSCLC): > 100 µM
- TGI (U251 CNS): > 100 µM
- TGI (OVCAR-3 ovarian): > 100 µM
- TGI (CCRF-CEM leukemia): > 100 µM
- TGI (NCI-H23 lung): > 100 µM
- TGI (LOX IMVI melanoma): > 100 µM
- TGI (HCT-116 colon): > 100 µM
- TGI (HOP-92 NSCLC): > 100 µM

Compound: COc1ccc(/C(Cl)=C(\C=O)c2ccc(Cl)c(Cl)c2)cc1
- TGI (COLO 205 colon): 36.6 µM
- TGI (A498 renal): 35.6 µM
- TGI (DMS 114 small cell lung): 18 µM
- TGI (SF-295 CNS): 22 µM
- TGI (NCI-H522 lung): 7.76 µM
- TGI (RPMI-8226 leukemia): 8.05 µM
- TGI (SK-MEL-28 melanoma): 31 µM
- TGI (EKVX NSCLC): 37.9 µM
- TGI (DMS 273 small cell lung): 32.8 µM
- TGI (TK-10 renal): 32.5 µM
- TGI (NCI-H460 lung): 19 µM
- TGI (HCT-15 colon): 20.4 µM
- TGI (M14 melanoma): 38 µM
- TGI (K-562 leukemia): > 100 µM
- TGI (SF-268 CNS): 24.9 µM
- TGI (HOP-62 NSCLC): 27.2 µM
- TGI (SNB-19 CNS): 30.1 µM
- TGI (SNB-75 CNS): 7.87 µM
- TGI (NCI-H226 lung): 36.4 µM
- TGI (SF-539 CNS): 22.2 µM
- TGI (HT29 colon): 15.5 µM
- TGI (SN12C renal): 29.2 µM
- TGI (UACC-62 melanoma): 26.7 µM
- TGI (SK-MEL-5 melanoma): 25.8 µM
- TGI (KM20L2 colon): 24 µM
- TGI (HL-60(TB) leukemia): 23.9 µM
- TGI (MALME-3M melanoma): 34.1 µM
- TGI (MOLT-4 leukemia): 7.36 µM
- TGI (HOP-18 NSCLC): 28.3 µM
- TGI (UO-31 renal): 26.8 µM
- TGI (CAKI-1 renal): 23 µM
- TGI (SW-620 colon): 19.3 µM
- TGI (M19-MEL melanoma): 28.2 µM
- TGI (IGROV1 ovarian): 33.7 µM
- TGI (SNB-78 CNS): 49 µM
- TGI (SK-MEL-2 melanoma): 15.5 µM
- TGI (DLD-1 colon): 25.5 µM
- TGI (XF 498 CNS): 24.3 µM
- TGI (OVCAR-8 ovarian): 32.3 µM
- TGI (SK-OV-3 ovarian): 55 µM
- TGI (LXFL 529 NSCLC): 20.4 µM
- TGI (ACHN renal): 20 µM
- TGI (U251 CNS): 18.4 µM
- TGI (OVCAR-3 ovarian): 31.9 µM
- TGI (CCRF-CEM leukemia): 30.2 µM
- TGI (LOX IMVI melanoma): 13.9 µM
- TGI (HCT-116 colon): 14.1 µM
- TGI (HOP-92 NSCLC): 24.3 µM

Compound: CCCOP1(=O)C=CC(Cl)=C(C)C1 (stereo not given)
- TGI (COLO 205 colon): 33.9 µM
- TGI (A498 renal): > 100 µM
- TGI (DMS 114 small cell lung): 89.3 µM
- TGI (SF-295 CNS): > 100 µM
- TGI (NCI-H522 lung): 31.6 µM
- TGI (RPMI-8226 leukemia): 60.1 µM
- TGI (SK-MEL-28 melanoma): 42.8 µM
- TGI (EKVX NSCLC): > 88 µM
- TGI (TK-10 renal): > 100 µM
- TGI (NCI-H460 lung): > 100 µM
- TGI (HCT-15 colon): 39.7 µM
- TGI (M14 melanoma): > 61.3 µM
- TGI (HCC-2998 colon): > 100 µM
- TGI (K-562 leukemia): > 31.6 µM
- TGI (SF-268 CNS): > 100 µM
- TGI (HOP-62 NSCLC): > 100 µM
- TGI (SNB-19 CNS): > 100 µM
- TGI (SNB-75 CNS): > 100 µM
- TGI (OVCAR-4 ovarian): > 100 µM
- TGI (SF-539 CNS): > 68.2 µM
- TGI (KM12 colon): 50.4 µM
- TGI (HT29 colon): > 100 µM
- TGI (SN12C renal): > 100 µM
- TGI (RXF 393 renal): 33.4 µM
- TGI (UACC-62 melanoma): 52.2 µM
- TGI (OVCAR-5 ovarian): > 100 µM
- TGI (SK-MEL-5 melanoma): > 100 µM
- TGI (KM20L2 colon): > 100 µM
- TGI (MALME-3M melanoma): 52.1 µM
- TGI (MOLT-4 leukemia): 22.2 µM
- TGI (A549 NSCLC): > 100 µM
- TGI (HOP-18 NSCLC): > 100 µM
- TGI (UO-31 renal): > 100 µM
- TGI (CAKI-1 renal): > 95.9 µM
- TGI (SW-620 colon): 42.2 µM
- TGI (IGROV1 ovarian): > 100 µM
- TGI (SNB-78 CNS): > 100 µM
- TGI (SK-MEL-2 melanoma): > 89.5 µM
- TGI (UACC-257 melanoma): 64.3 µM
- TGI (DLD-1 colon): 47.9 µM
- TGI (XF 498 CNS): > 93.1 µM
- TGI (OVCAR-8 ovarian): 47.5 µM
- TGI (SK-OV-3 ovarian): > 100 µM
- TGI (786-0 renal): 76 µM
- TGI (LXFL 529 NSCLC): > 61.1 µM
- TGI (ACHN renal): > 66.5 µM
- TGI (U251 CNS): > 100 µM
- TGI (OVCAR-3 ovarian): > 75.2 µM
- TGI (CCRF-CEM leukemia): 19.7 µM
- TGI (NCI-H23 lung): > 100 µM
- TGI (LOX IMVI melanoma): > 100 µM
- TGI (HCT-116 colon): 33.5 µM
- TGI (HOP-92 NSCLC): > 100 µM
